Reference: BindingDB's records for doi:10.1002/cmdc.202100576 (Experimental Drug Development Centre, 2021)
pIC50, pKi: −log10 of the molar value. Values joined by “and” are separate entries in the source; they are usually repeats but may differ in a detail not shown here. Identical values can stand only once.

Legend:
Experiment in all cases: Various Assay
[1] = target: Replicase polyprotein 1ab (Severe acute respiratory syndrome coronavirus, UniProt P0C6X7)
[2] = target: Replicase polyprotein 1ab (Severe acute respiratory syndrome coronavirus 2, UniProt P0DTD1)
[3] = target: Replicase polyprotein 1ab (Middle East respiratory syndrome-related coronavirus (isolate United Kingdom/H123990006/2012), UniProt K9N7C7)

For O=C1C(=O)N(Cc2ccc3ccccc3c2)c2ccc(C(=O)N3CCCC3)cc21 [cmdc.202100576, 13e], the pIC50 [1] was 4.15.
Work on CC(C)(C)c1ccc(N(C(=O)c2c[nH]cn2)[C@H](C(=O)NC2CCCC2)c2cccnc2)cc1 [cmdc.202100576, 19e] yielded a pIC50 [1] of 5.77.
For CC(C)C(=O)Nc1ccc(N(C(=O)Cn2nnc3ccccc32)[C@H](C(=O)NCc2ccccc2)c2cccc(F)c2)cc1 [cmdc.202100576, 19d], the pIC50 [1] was 5.80.
In the case of COc1cccc2[nH]c(C(=O)N[C@@H](CC(C)C)C(=O)N[C@@H](C[C@@H]3CCNC3=O)C(C)=O)cc12 [WO2006061714, P38.5], the pIC50 [1] was 5.64.
In the case of CC(C)C[C@H]1C(=O)N[C@H](C=O)CCC(=O)NCCCn2cc(nn2)C[C@@H]1CC(=O)OCc1ccccc1 [cmdc.202100576, 16c], the pIC50 [1] was 4.81.
O=C(Oc1ccc(S(=O)(=O)c2ccc(OC(=O)C(Cl)=C(Cl)Cl)cc2Cl)cc1)C(Cl)=C(Cl)Cl [cmdc.202100576, 7b] showed a pIC50 [1] of 6.05.
In the case of COC(=O)c1c[nH]c(SSc2ccccc2[N+](=O)[O-])n1 [cmdc.202100576, 17e], the pIC50 [1] was 5.70.
Compound O=C(O)c1cc(O)cc(B(O)O)c1 [cmdc.202100576, 4d] has a pKi [1] of 5.46.
O=C(Oc1c(Cl)cc(Cl)cc1[N+](=O)[O-])c1cc(B(O)O)cc([N+](=O)[O-])c1 [cmdc.202100576, 4e] showed a pKi [1] of 5.16.
With CC(C)C[C@@H](NC(=O)[C@H](Cc1cccc2ccccc12)NC(=O)OCc1ccccc1)C(=O)N[C@H](CC1CCNC1=O)C(=O)C(=O)NC(C)C (some centres undefined) [cmdc.202100576, 14f] the pIC50 [1] was 6.09.
CC(C)[C@H](NC(=O)c1cc2ccccc2[nH]1)C(=O)N[C@@H](Cc1ccccc1)C(=O)N[C@H](C=O)CC1CCNC1=O (some centres undefined) [cmdc.202100576, 18d] gave a pIC50 [1] of 7.30 and a pIC50 [2] of 7.17.
CC(C)C[C@H](NC(=O)[C@H](CN(C)C)NC(=O)OCc1ccccc1)C(=O)N[C@@H](C[C@@H]1CCNC1=O)C(=O)C(=O)NC(C)(C)C [cmdc.202100576, 22d] showed a pIC50 [1] of 8.15.
CCOC(=O)/C=C/[C@@H](C[C@H]1CCNC1=O)NC(=O)[C@@H](CC(C)C)NC(=O)[C@H](NC(=O)OCc1ccccc1)C(C)OC(C)(C)C (some centres undefined) [cmdc.202100576, 5b] gave a pKi [1] of 7.24.
For O=C(NCc1ccccc1)C(=O)[C@H](C[C@@H]1CCCNC1=O)NC(=O)[C@H](Cc1ccccc1)NC(=O)c1cnc2ccccc2n1 [cmdc.202100576, 23d], the pIC50 [3] was 8.70.
In the case of CC(C)C[C@@H](NC(=O)OCc1ccccc1)C(=O)N[C@@H](C=O)CC1CCNC1=O (some centres undefined) [cmdc.202100576, 14b], the pIC50 [1] was 5.46.
COC(=O)/C=C/[C@H](C[C@@H]1CCNC1=O)NC(=O)[C@H](CC(C)C)NC(=O)[C@@H](NC(=O)OCc1ccccc1)C(C)NC(=O)C(C)(C)C (some centres undefined) [cmdc.202100576, 5f] gave a pKi [1] of 7.42.
For CC(C)C(=O)Nc1ccc(N(C(=O)Cn2nnc3ccccc32)[C@H](C(=O)NCc2ccccc2)c2ccc(O)cc2)cc1 [cmdc.202100576, 19c], the pIC50 [1] was 5.96.
Cc1cc(C(=O)N[C@@H](C)C(=O)N[C@H](C(=O)N[C@@H](CC(C)C)C(=O)N[C@H](C=CC(=O)OCc2ccccc2)C[C@@H]2CCNC2=O)C(C)C)no1 [the N3 Compound] was tested, and the pIC50 [1] was 5.05.
In the case of O=C(NCc1ccccc1)C(=O)[C@H](C[C@@H]1CCCNC1=O)NC(=O)[C@H](CC1CCCCC1)NC(=O)c1cc2ccccc2[nH]1 [cmdc.202100576, 23e], the pIC50 [3] was 8.70.
O=C1C(=O)N(Cc2ccccc2)c2ccc(C(=O)N3CCCC3)cc21 [cmdc.202100576, 13c] was tested, and the pIC50 [1] was 4.64.
With CC(C)C[C@H](NC(=O)OCCc1cccc(Cl)c1)C(=O)N[C@@H](C[C@@H]1CCNC1=O)C(O)S(=O)(=O)O (some centres undefined) [cmdc.202100576, 20f] the pIC50 [3] was 6.15.
With O=C(Nc1ccc(N(C(=O)Cn2nnc3ccccc32)[C@H](C(=O)NCc2ccccc2)c2ccsc2)cc1)C1CC1 [cmdc.202100576, 19f] the pIC50 [1] was 5.70.
For O=C(NCc1ccccc1)C(=O)[C@H](C[C@@H]1CCCNC1=O)NC(=O)[C@H](Cc1ccccc1)NC(=O)c1cc2ccccc2[nH]1 [cmdc.202100576, 23c], the pIC50 [3] was > 9.00.
For CC(C)(C)NC(=O)C(=O)[C@H](C[C@@H]1CCNC1=O)NC(=O)[C@H](CC1CCCCC1)NC(=O)[C@H](Cc1cccc2ccccc12)NC(=O)OCc1ccc(OCN2CCOCC2)cc1 [cmdc.202100576, 22b], the pIC50 [1] was 8.18.
CC(C)C[C@H](NC(=O)OC1(Cc2ccccc2)CCN(C(=O)OC(C)(C)C)CC1)C(=O)N[C@@H](C[C@@H]1CCNC1=O)C(O)S(=O)(=O)O (some centres undefined) [cmdc.202100576, 20d] was tested, and the pIC50 [3] was 6.22.
O=C1c2c(O)cc(O)cc2O[C@@H](c2ccc(O)c(O)c2)[C@@H]1O [cmdc.202100576, 15] gave a pIC50 [1] of 4.14.
CC(C)C[C@@H](NC(=O)[C@H](Cc1cccc2ccccc12)NC(=O)OCc1ccccc1)C(=O)N[C@@H](C=O)CC1CCNC1=O (some centres undefined) [cmdc.202100576, 14e] showed a pIC50 [1] of 6.64.
In the case of Nc1cc(B(O)O)cc(C(=O)OCc2cccc(B(O)O)c2)c1 [cmdc.202100576, 4c], the pKi [1] was 5.46.
In the case of O=C[C@H](CC1CCNC1=O)NC(=O)[C@H](Cc1ccccc1)NC(=O)c1cc2ccccc2[nH]1 (some centres undefined) [cmdc.202100576, 18b], the pIC50 [1] was 7.52 and the pIC50 [2] was 7.47.
CN1C(=O)C(=O)c2cc(C(=O)N3CCOCC3)ccc21 [cmdc.202100576, 13d] was tested, and the pIC50 [1] was 4.44.
With CC(C)C[C@H](NC(=O)[C@H](CN1CCOCC1)NC(=O)OCc1ccccc1)C(=O)N[C@@H](C[C@@H]1CCNC1=O)C(=O)C(=O)NC(C)C [cmdc.202100576, 22e] the pIC50 [1] was 8.15.
For Fc1ccc(SSc2nccs2)cc1 [cmdc.202100576, 17f], the pIC50 [1] was 5.66.
In the case of CC(C)C[C@H](NC(=O)OC1CCN(S(C)(=O)=O)CC1)C(=O)N[C@@H](C[C@@H]1CCNC1=O)C(O)S(=O)(=O)O (some centres undefined) [cmdc.202100576, 20c], the pIC50 [3] was 6.30.
With COC(C)[C@H](NC(=O)OCc1ccccc1)C(=O)N[C@@H](CC(C)C)C(=O)N[C@@H](C[C@@H]1CCNC1=O)C(=O)C(=O)NC(C)C (some centres undefined) [cmdc.202100576, 22c] the pIC50 [1] was 8.17.
In the case of C=C(N[C@H](C=O)CC1CCNC1=O)[C@H](Cc1ccccc1)NC(=O)[C@@H](NC(=O)c1cncc(F)c1)C(C)C (some centres undefined) [cmdc.202100576, 18c], the pIC50 [1] was 7.46.
For Cc1ccc(SSc2nccs2)cc1 [cmdc.202100576, 17b], the pIC50 [1] was 5.89.
O=C(Nc1ccc(NC(=O)c2cc(B(O)O)cc([N+](=O)[O-])c2)cc1)c1cc(B(O)O)cc([N+](=O)[O-])c1 [acs.jmedchem.1c00409_ST.31] gave a pKi [1] of 7.66.
O=C(Sc1nnc(C(F)(F)F)[nH]1)C1CCC(C#Cc2ccccc2)O1 (centres undefined) [cmdc.202100576, 7c] showed a pIC50 [1] of 5.52.
In the case of O=C(Oc1ccc(OC(=O)c2cc(B(O)O)cc([N+](=O)[O-])c2)cc1)c1cc(B(O)O)cc([N+](=O)[O-])c1 [cmdc.202100576, 4b], the pKi [1] was 5.17.
With CC(=O)Nc1cnc(SSc2ccccc2[N+](=O)[O-])s1 [cmdc.202100576, 17c] the pIC50 [1] was 5.72.
O=C[C@H](CC1CCNC1=O)NC(=O)[C@H](Cc1ccccc1)NC(=O)c1cc2cc(F)ccc2[nH]1 (some centres undefined) gave a pIC50 [1] of 6.95.
With O=[N+]([O-])c1ccccc1SSc1nccs1 [cmdc.202100576, 17d] the pIC50 [1] was 5.70.
COc1cccc2[nH]c(C(=O)N(C)[C@@H](CC(C)C)C(=O)N[C@@H](C[C@@H]3CCNC3=O)C(=O)CO)cc12 [WO2005113580-Ex-29] was tested, and the pIC50 [1] was 7.08.
With CC(C)C[C@@H](NC(=O)OCc1ccccc1)C(=O)N[C@H](CC1CCNC1=O)C(=O)C(=O)NC(C)C (some centres undefined) [cmdc.202100576, 14d] the pIC50 [1] was 5.33.
Compound O=C[C@H](CC1CCNC1=O)NC(=O)[C@H](Cc1ccccc1)NC(=O)c1ccc2c(c1)OCO2 (some centres undefined) [cmdc.202100576, 18e] has a pIC50 [1] of 7.00 and a pIC50 [2] of 7.11.
CC(C)C(=O)Nc1ccc(N(C(=O)Cn2nnc3ccccc32)[C@H](C(=O)NCc2ccccc2)c2ccc(Cl)c(F)c2)cc1 [cmdc.202100576, 19b] showed a pIC50 [1] of 6.10.
Compound COc1cccc2[nH]c(C(=O)N[C@@H](CC(C)C)C(=O)N[C@@H](C[C@@H]3CCNC3=O)C(=O)COC(=O)C3CC3)cc12 [WO2005113580-Ex-37] has a pIC50 [1] of 6.79.
With CC1CCN(C(=O)c2ccc3c(c2)C(=O)C(=O)N3Cc2ccc3ccccc3c2)CC1 [cmdc.202100576, 13b] the pIC50 [1] was 4.70.
CC(C)C[C@H](NC(=O)[C@@H](NC(=O)OCc1ccccc1)C(C)OC(C)(C)C)C(=O)N[C@H](/C=C/C(=O)OC1CC1)C[C@@H]1CCNC1=O (some centres undefined) [cmdc.202100576, 5e] gave a pKi [1] of 7.00.
With O=c1c(O[C@@H]2O[C@H](CO[C@@H]3OC[C@H](O)[C@H](O)[C@H]3O)[C@@H](O)[C@H](O)[C@H]2O)c(-c2ccc(O)c(O)c2)oc2cc(O)cc(O)c12 [cmdc.202100576, 12c] the pIC50 [1] was 4.50.
CC(C)C[C@H](NC(=O)[C@H](CN1CCC(F)CC1)NC(=O)OCc1ccccc1)C(=O)N[C@@H](C[C@@H]1CCNC1=O)C(=O)C(=O)NC(C)C [cmdc.202100576, 22f] was tested, and the pIC50 [1] was 8.15.
O=C(NCc1ccccc1)C(=O)[C@H](C[C@@H]1CCCNC1=O)NC(=O)[C@H](CC1CCCCC1)NC(=O)c1cnc2ccccc2n1 [cmdc.202100576, 23f] was tested, and the pIC50 [3] was 8.30.
With CC(C)C[C@H](NC(=O)OC1CCN(C(=O)OC(C)(C)C)CC1)C(=O)N[C@@H](C[C@@H]1CCNC1=O)C(O)S(=O)(=O)O (some centres undefined) [cmdc.202100576, 20b] the pIC50 [3] was 6.52 and 6.22.
O=C(NC1CCCCC1)C(=O)[C@H](C[C@@H]1CCCNC1=O)NC(=O)[C@H](CC1CCCCC1)NC(=O)c1cc2ccccc2o1 [cmdc.202100576, 23b] was tested, and the pIC50 [3] was > 9.00.
CC(C)C[C@H](NC(=O)c1nc2ccccc2[nH]1)C(=O)N[C@H](C=O)C[C@@H]1CCNC1=O [WO2006061714-ID-09] showed a pIC50 [1] of 7.52.
Work on O=C1C(=O)N(Cc2ccc3ccccc3c2)c2ccc(C(=O)N3CCCCC3)cc21 [cmdc.202100576, 13f] yielded a pIC50 [1] of 4.06.
